Data taken from the NIST ThermoML archive (doi:10.1016/j.jct.2016.10.020).
± gives the expanded uncertainty stated by the source.

How the values were obtained:
[1] = Molar enthalpy of transition or fusion; details: Crystal; DSC
[2] = Crystal; DTA

For `COc1cc(Cl)nc(N)n1` [2-amino-4-chloro-6-methoxypyrimidine], the “Molar enthalpy of transition or fusion” value [1] was 5.93 ± 0.239 kcal/mol and the Normal melting temperature [2] was 173.80 ± 1.1 °C.
